Earlier results as cited in patent US20030060423A1, “Co-therapy for the treatment of dementia and associated behavioral manifestations comprising anticonvulsant derivatives and acetylcholinesterase inhibitors” (priority 2001, published 2003).

Assays:
[1] = system: behavioral and psychiatric symptoms of AD; conditions: in vivo
kindled epilepsy = conditions: animal model of kindled epilepsy
[2] = system: simple and complex partial seizures and secondarily generalized seizures; conditions: clinical trials, adjunctive therapy or monotherapy
[3] = system: neuronal damage following global ischemia; conditions: gerbils
attention, cognition = conditions: some individuals
focal ischemia = conditions: used 2 hours after MCA embolization, rat
seizures = conditions: several rodent models of epilepsy

Row | Structure (SMILES) | modulation of nicotinic receptors (nicotinic receptors) | benefit on behavioral and psychiatric symptoms of AD [1] | block of seizures (kindled epilepsy) | efficacy in treating simple and complex partial seizures and secondarily generalized seizures [2] | neuroprotective effect against neuronal damage [3] | effect on attention (attention, cognition) | neuroprotective effect (focal ischemia) | block of seizures (seizures)
1 | COc1ccc2c3c1O[C@H]1C[C@@H](O)C=C[C@@]31CCN(C)C2 [galantamine, (4aS,6R,8aS)-4a,5,9,10,11,12-hexahydro-3-methoxy-11-methyl-6H-benzofuro[3a,3,2-ef][2]benzazepin-6-ol] | allosteric modulation of nicotinic receptors | benefits on the behavioral and psychiatric symptoms of AD | – | – | – | – | – | –
2 | CC1(C)O[C@@H]2[C@@H](CO[C@@]3(COS(N)(=O)=O)OC(C)(C)O[C@@H]23)O1 [topiramate, 2,3:4,5-bis-O-(1-methylethylidene)-β-D-fructopyranose sulfamate] | – | – | effectively block seizures | effective as adjunctive therapy or as monotherapy | neuroprotective effect | may impair attention | dose- and use-dependent neuroprotective effect | effectively block seizures
